In general, IC50 refers to the midpoint of a concentration-inhibition curve. A low value points to greater potency.

For assay [1], the system named is Leishmania major. As to the kind of experiment: Antileishmanial activity against wild-type Leishmania major LV39 promastigotes infected in human THP1 cells by luciferase based assay. Type of assay: functional, organism-based. The note with it: LV39, THP-1.
Assay [2] deals with Leishmania amazonensis. In words: Antileishmanial activity against wild-type Leishmania amazonensis MHOM/BR/1973/MM2269 promastigotes infected in human THP1 cells by luciferase based assay. Type of assay: functional, organism-based. The note with it: THP-1.
Assay [3] has as its system Leishmania infantum. As to the kind of experiment: Antileishmanial activity against wild-type Leishmania infantum MHOM/MA/67/ITMAP-263 promastigotes infected in human THP1 cells by luciferase based assay. Type of assay: functional, organism-based. To be noted: THP-1.
In assay [4] the test system is Leishmania major. In words: Antileishmanial activity against ABC transporter PRP1 gene expressing Leishmania major LV39 promastigotes infected in human THP1 cells assessed as fold resistance by luciferase based assay relative to control. Type of assay: functional, THP-1.
The test system of assay [5] is Leishmania amazonensis. As to the kind of experiment: Antileishmanial activity against ABC transporter PRP1 gene expressing Leishmania amazonensis MHOM/BR/1973/MM2269 promastigotes infected in human THP1 cells assessed as fold resistance by luciferase based assay relative to control. Type of assay: functional, THP-1.
Assay [6] relates to Leishmania infantum. In words: Antileishmanial activity against ABC transporter PRP1 gene expressing Leishmania infantum MHOM/MA/67/ITMAP-263 axenic amastigotes assessed as fold resistance relative to control.

As to `N=C(N)c1ccc(OCCCCCOc2ccc(C(=N)N)cc2)cc1` [PENTAMIDINE], the IC50 in the assay with Leishmania major [1] is 5.1 µg/mL; with Leishmania amazonensis [2], 6.8 µg/mL; in the assay with Leishmania infantum [3] it was 10 µg/mL. Further, the “fold change (FC)” value with Leishmania major [4], in the assay on Leishmania amazonensis [5] and in the assay with Leishmania infantum [6] was 3 throughout.
For the molecule `COc1ccc(CCN(C)CCCC(C#N)(c2ccc(OC)c(OC)c2)C(C)C)cc1OC` (centres undefined) [VERAPAMIL], the figures for the IC50 in the assay on Leishmania major [1], in the assay on Leishmania amazonensis [2] and with Leishmania infantum [3] were 40.3 µM, 19.1 µM and 43.2 µM, respectively.

Source of the values: ChEMBL document CHEMBL1155136, “Role of the ABC transporter PRP1 (ABCC7) in pentamidine resistance in Leishmania amastigotes” (Antimicrob Agents Chemother, 2007).
